Assays:
Test in all cases: Enzyme activity test, mobility shift assay (Table 1)
Type in all cases: biochemical
[1] = biological target: CDK12 (aa686-1082)/Cyclin K (Homo sapiens (Human), UniProt Q9NYV4); details: 2 mM ATP; read-out: CDK12 kinase IC50
Description: (§1) The compound powder was dissolved in 100% DMSO to prepare a 10 mM storage solution. The storage solution was further diluted to 0.5 mM as the initial concentration, and continuously diluted 3 times to obtain 10 compound solutions with different concentrations. The compound and enzyme were pre-incubated for 0 minutes and 60 minutes, respectively, using duplicate detection. Compound Staurosporine having a structural formula of
(§2) was used as a positive control, and Mobility shift assay method was used to detect CDK kinase (such as CDK7, CDK9, CDK12 and CDK2) activity of the compounds.

CDK9/Cyclin Tl = CDK9/Cyclin Tl (Homo sapiens (Human), UniProt P50750); details: 2 mM ATP; read-out: CDK9 kinase IC50
Description: as §1, with “detection.” for “detection. Compound Staurosporine having a structural formula of”
as §2

CDK2/Cyclin El = CDK2/Cyclin El (Homo sapiens (Human), UniProt P24941); details: 2 mM ATP; read-out: CDK2 kinase IC50
Description: as §1, with “detection.” for “detection. Compound Staurosporine having a structural formula of”
as §2

[2] = biological target: CDK7/Cyclin H/MAT1 kinase (Homo sapiens (Human), UniProt P50613); details: 2 mM ATP; pre-incubated 0 and 60 minutes
Description: IC50 values of the compounds for CDK7 kinase were detected in Wuxi Biortus Biosciences Co. Ltd.
as §1, with “detection.” for “detection. Compound Staurosporine having a structural formula of”
as §2

Chain of CDK12 (aa686-1082)/Cyclin K (Q9NYV4 686-1082): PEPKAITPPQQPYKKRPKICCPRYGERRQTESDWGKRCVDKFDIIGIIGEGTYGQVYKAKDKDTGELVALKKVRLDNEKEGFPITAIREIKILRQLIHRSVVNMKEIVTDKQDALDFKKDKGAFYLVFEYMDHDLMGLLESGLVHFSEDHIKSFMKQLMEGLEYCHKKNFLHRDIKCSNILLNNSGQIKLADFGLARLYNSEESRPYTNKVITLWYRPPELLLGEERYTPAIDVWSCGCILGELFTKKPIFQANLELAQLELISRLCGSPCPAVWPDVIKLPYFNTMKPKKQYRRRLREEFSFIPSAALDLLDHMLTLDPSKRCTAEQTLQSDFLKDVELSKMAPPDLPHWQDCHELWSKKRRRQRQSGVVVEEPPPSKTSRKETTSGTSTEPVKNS
Chain of CDK12 (aa686-1082)/Cyclin K (O75909 whole entry partner, the tested form may be a part): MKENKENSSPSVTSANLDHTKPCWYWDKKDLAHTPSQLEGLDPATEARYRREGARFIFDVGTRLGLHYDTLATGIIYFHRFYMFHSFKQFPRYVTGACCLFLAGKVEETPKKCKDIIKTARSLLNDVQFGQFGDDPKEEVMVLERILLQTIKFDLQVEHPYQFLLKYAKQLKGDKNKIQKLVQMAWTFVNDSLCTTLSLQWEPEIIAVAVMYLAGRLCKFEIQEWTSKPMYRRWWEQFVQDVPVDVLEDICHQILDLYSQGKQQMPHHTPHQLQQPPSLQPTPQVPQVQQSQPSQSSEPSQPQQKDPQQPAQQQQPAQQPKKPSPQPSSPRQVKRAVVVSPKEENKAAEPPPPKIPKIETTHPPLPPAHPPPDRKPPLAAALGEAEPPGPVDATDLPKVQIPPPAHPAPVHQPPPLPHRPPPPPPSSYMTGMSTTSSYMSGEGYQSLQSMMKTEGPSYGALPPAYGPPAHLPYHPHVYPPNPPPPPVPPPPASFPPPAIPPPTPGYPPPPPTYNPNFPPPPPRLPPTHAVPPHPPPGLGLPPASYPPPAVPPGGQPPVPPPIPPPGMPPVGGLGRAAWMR
Chain of CDK7/Cyclin H/MAT1 kinase (P50613 whole entry): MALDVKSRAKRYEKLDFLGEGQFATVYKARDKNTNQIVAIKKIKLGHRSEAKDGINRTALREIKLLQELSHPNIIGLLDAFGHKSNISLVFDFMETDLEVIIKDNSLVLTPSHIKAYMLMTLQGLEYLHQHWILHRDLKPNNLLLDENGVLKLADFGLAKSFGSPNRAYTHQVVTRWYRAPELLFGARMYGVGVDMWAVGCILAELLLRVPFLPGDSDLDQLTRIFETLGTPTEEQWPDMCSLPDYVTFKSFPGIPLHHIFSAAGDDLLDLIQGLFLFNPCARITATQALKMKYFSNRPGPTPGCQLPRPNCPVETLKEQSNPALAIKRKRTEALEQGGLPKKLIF
Chain of CDK7/Cyclin H/MAT1 kinase (P51946 whole entry partner): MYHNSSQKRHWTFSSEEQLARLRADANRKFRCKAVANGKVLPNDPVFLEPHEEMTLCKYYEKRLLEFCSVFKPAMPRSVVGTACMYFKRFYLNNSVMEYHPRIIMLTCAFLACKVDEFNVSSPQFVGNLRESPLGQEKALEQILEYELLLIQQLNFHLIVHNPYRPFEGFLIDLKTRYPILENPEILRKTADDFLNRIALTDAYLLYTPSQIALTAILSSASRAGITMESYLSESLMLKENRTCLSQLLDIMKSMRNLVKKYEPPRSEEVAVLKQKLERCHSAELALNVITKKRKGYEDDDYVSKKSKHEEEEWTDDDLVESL
Chain of CDK7/Cyclin H/MAT1 kinase (P51948 whole entry partner): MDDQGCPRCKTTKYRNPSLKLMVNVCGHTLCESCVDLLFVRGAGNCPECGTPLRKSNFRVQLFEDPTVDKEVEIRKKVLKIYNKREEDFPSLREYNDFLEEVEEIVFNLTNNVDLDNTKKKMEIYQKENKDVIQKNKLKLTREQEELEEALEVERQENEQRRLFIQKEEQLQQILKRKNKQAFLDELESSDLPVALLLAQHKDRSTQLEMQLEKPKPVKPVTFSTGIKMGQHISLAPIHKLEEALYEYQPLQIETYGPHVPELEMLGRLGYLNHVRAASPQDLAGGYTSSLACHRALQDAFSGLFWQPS
Chain of CDK9/Cyclin Tl (P50750 whole entry): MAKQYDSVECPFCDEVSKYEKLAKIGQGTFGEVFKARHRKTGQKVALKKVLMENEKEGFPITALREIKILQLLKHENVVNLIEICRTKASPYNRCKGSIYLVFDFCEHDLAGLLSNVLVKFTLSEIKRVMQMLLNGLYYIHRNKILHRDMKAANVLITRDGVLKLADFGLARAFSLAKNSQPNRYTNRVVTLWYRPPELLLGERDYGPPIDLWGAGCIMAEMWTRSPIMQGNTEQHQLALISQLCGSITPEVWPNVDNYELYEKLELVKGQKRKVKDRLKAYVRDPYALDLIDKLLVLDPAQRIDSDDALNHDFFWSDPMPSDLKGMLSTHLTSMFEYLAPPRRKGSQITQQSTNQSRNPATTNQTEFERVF
Chain of CDK9/Cyclin Tl (O60563 whole entry partner): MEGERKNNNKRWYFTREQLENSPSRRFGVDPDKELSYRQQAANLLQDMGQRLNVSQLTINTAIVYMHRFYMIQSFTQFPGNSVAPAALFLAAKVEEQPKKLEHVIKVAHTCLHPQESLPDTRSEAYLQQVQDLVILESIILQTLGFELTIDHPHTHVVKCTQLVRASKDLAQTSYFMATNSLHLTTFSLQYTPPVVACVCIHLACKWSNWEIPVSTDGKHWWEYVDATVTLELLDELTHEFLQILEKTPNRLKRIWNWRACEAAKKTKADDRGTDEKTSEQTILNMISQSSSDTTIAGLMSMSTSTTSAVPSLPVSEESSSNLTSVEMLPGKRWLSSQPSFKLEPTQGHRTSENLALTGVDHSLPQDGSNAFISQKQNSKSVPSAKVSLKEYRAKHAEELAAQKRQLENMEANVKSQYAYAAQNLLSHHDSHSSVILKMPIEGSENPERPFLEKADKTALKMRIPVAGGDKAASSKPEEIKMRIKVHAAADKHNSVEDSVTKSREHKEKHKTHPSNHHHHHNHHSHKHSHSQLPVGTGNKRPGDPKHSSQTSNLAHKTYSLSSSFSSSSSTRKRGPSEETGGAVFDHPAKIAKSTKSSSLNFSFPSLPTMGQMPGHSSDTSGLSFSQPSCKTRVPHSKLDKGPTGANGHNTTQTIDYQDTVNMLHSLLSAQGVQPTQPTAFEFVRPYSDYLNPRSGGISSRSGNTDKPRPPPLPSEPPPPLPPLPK

| IC50 [1] [nM] | IC50 (CDK9/Cyclin Tl) [nM] | IC50 (CDK2/Cyclin El) [nM] | IC50 [2] [nM] | Compound |
| --- | --- | --- | --- | --- |
| > 500 | > 500 | > 500 | < 50 | COC(=O)Nc1ccc2c(-c3nc(N[C@H]4CCCNC4)ncc3C(F)(F)F)c[nH]c2c1C1COC1 [Example T-84] |
| > 500 | > 500 | > 500 | < 50 | COC(=O)Nc1ccc2c(-c3nc(N[C@H]4CCC(C)(C)NC4)ncc3Cl)c[nH]c2c1OCC(F)(F)F [Example T-85] |
| > 500 | > 500 | > 500 | < 50 | COC(=O)Nc1ccc2c(-c3nc(N[C@H]4CCC(C)(C)NC4)ncc3Cl)c[nH]c2c1CC(F)(F)F [Example T-86] |
| > 500 | > 500 | > 500 | < 50 | COC(=O)Nc1ccc2c(-c3nc(N[C@H]4CCCNC4)ncc3Cl)c[nH]c2c1C(F)(F)F [Example T-88] |
| > 500 | > 500 | > 500 | < 50 | COC(=O)Nc1ccc2c(-c3nc(N[C@H]4CCC(C)(C)NC4)ncc3Cl)c[nH]c2c1OC(F)(F)F [Example T-96] |
| > 500 | > 500 | > 500 | < 50 | COC(=O)Nc1ccc2c(-c3nc(N[C@H]4CCC5(CC5)NC4)ncc3C(F)(F)F)c[nH]c2c1C(F)(F)F [Example T-100] |
| > 500 | > 500 | > 500 | < 50 | COC(=O)Nc1ccc2c(-c3nc(N[C@H]4CCC(C)(C)NC4)ncc3C(F)(F)F)c[nH]c2c1C1CC(F)(F)C1 [Example T-106] |
| > 500 | > 500 | > 500 | < 50 | COC(=O)Nc1ccc2c(-c3nc(N[C@H]4CCC(C)(C)NC4)ncc3C(F)(F)F)c[nH]c2c1OC(F)F [Example T-108] |
| > 500 | > 500 | > 500 | 50 to 500 | COC(=O)Nc1ccc2c(-c3nc(N[C@H]4CCC(C)NC4)ncc3C(F)(F)F)c[nH]c2c1C1CC1 (stereo partly drawn) [Example T-129] |
| > 500 | > 500 | > 500 | 50 to 500 | COC(=O)Nc1ccc2c(-c3nc(N[C@H]4CC[C@H](C)NC4)ncc3C(F)(F)F)c[nH]c2c1C1CC1 [Example T-131] |
| > 500 | > 500 | > 500 | < 50 | COC(=O)Nc1ccc2c(-c3nc(N[C@H]4CCC(C)(C)NC4)ncc3C(F)(F)F)c[nH]c2c1C(C)=O [Example T-134] |

More lines, now with the values behind:

| Compound | IC50 [1] [nM] | IC50 (CDK9/Cyclin Tl) [nM] | IC50 (CDK2/Cyclin El) [nM] | IC50 [2] [nM] |
| --- | --- | --- | --- | --- |
| COC(=O)N(C)c1ccc2c(-c3nc(N[C@H]4CCCNC4)ncc3C(F)(F)F)c[nH]c2c1Br [Example T-102] | > 500 | > 500 | > 500 | < 50 |
| COC(=O)Nc1ccc2c(-c3nc(N[C@H]4CCC(C)(C)NC4)ncc3C(F)(F)F)c[nH]c2c1C1CC1(F)F (stereo partly drawn) [Example T-105] | > 500 | > 500 | > 500 | < 50 |
| COC(=O)Nc1ccc2c(-c3nc(N[C@H]4CCC(C)(C)NC4)ncc3C(F)(F)F)c[nH]c2c1C(F)F [Example T-107] | > 500 | > 500 | > 500 | < 50 |
| COC(=O)Nc1ccc2c(-c3nc(N[C@H]4CCC(C)(C)NC4)ncc3C(F)(F)F)c[nH]c2c1OC(F)(F)F [Example T-109] | > 500 | > 500 | > 500 | < 50 |
| CCOC(=O)Nc1ccc2c(-c3nc(N[C@H]4CCCNC4)ncc3C(F)(F)F)c[nH]c2c1C1CC1 [Example T-127] | > 500 | > 500 | > 500 | < 50 |
| COC(=O)Nc1ccc2c(-c3nc(N[C@H]4CC[C@@H](C)NC4)ncc3C(F)(F)F)c[nH]c2c1C1CC1 [Example T-130] | > 500 | > 500 | > 500 | 50 to 500 |
| COC(=O)Nc1ccc2c(-c3nc(N[C@H]4CCC(C)(C)NC4)ncc3C(F)(F)F)c[nH]c2c1C(C)(F)F [Example T-136] | > 500 | > 500 | > 500 | < 50 |

Source: patent publication US20230295130A1, “COMPOUND USEFUL AS CDK7 KINASE INHIBITOR AND USE THEREOF” (TYK MEDICINES, INC., priority 2020, published 2023)
